Test results: publication PMC12442009, “Self-Assembling Cyclic Peptide Nanotubes for the Delivery of Doxorubicin into Drug-Resistant Cancer Cells” (ACS Applied Materials & Interfaces, 2025)
Read-outs that look alike come from different tables or passages of the source. Square brackets hold non-standard residues; d marks the D form. Peptide text beside a SMILES is read from it. * marks the point of attachment. X1 = COc1cccc2c1C(=O)c1c(O)c3c(c(O)c1C2=O)C[C@@](O)(C(CO)=NNC(=O)CCCCCN1C(=O)CC(*)C1=O)C[C@@H]3O[C@H]1C[C@H](N)[C@H](O)[C@H](C)O1; Pra = C#CC[C@H](N)C(=O)O

Tests used:
[1] = system: MCF-7 (breast cancer cell line); assay: MTT cell growth inhibition, MCF-7; assay type: cell-based; details: for E max (% inhibition): inhibition at highest concentration tested (100 μM), triplicate points
Method: (§1) The cell growth inhibition of each compound was evaluated using the MTT (3-[4,5-dimethylthiazol-2-yl]-2,5-diphenyltetrazolium bromide) assay. MCF-7 and MRC-5 cells were grown on a Minimum Essential Medium Eagle, while NCI-H460 and NCI/ADR-RES cells were grown on RPMI 1640 culture medium. All culture mediums were supplemented with 10% FBS (fetal bovine serum) and 1% penicillin-streptomycin-glutamine mix. […] MCF-7 (100,000 cells/mL), NCI-H460 (150,000 cells/mL), NCI/ADR-RES (150,000 cells/mL), or MRC-5 (100,000 cells/mL) cells were seeded the day before in sterile 96-well plates (100 μL/well). Then, cells were incubated with each concentration of the compound (100 μL/well) for the specified time for each cell line. The compounds were previously dissolved in DMSO and diluted at the time of the experiment with complete medium to the concentration to be tested. The DMSO content of each well was maintained at less than 1%. All concentrations were carried out with triplicate points, and controls with DMSO at the same proportion in which the compounds were dissolved were included in all experiments. After the incubation time, the samples were removed, and 100 μL of complete medium with 0.5 mg/mL MTT was added to each well. Cells were incubated for 4 h, and the medium was removed. The resulting formazan crystals were dissolved in DMSO (100 μL/well). The absorbance of each well at 595 nm was acquired with a Tecan Infinite F200Pro plate reader. A blank subtraction was performed (cells treated with Triton X-100), and the data were normalized to the value of the untreated cells (100% viability). Data were analyzed with GraphPad Prism software.

[2] = system: NCI/ADR-RES (doxorubicin-resistant ovarian cancer cell line); assay: MTT cell growth inhibition, NCI/ADR-RES; assay type: cell-based; details: for E max (% inhibition): inhibition at highest concentration tested (100 μM)
Method: as §1

[3] = Hydrazone stability / DOX release followed by mass spectrometry; assay type: physicochemical; details: 200 μM; for stability (DOX release) at pH 5.0: pH 5.0 (10 mM citrate buffer), followed over 72 h; for stability (DOX release) at physiological pH: pH 7.0 (H2O), 72 h
[4] = system: NCI-H460 (lung cancer cell line); details: for E max (% inhibition): inhibition at highest concentration tested (100 μM)
Method: as §1

NCI/ADR-RES cells [5] = assay: Confocal microscopy internalization and colocalization; details: 50 μM, 2 h
NCI/ADR-RES cells [6] = assay: Cell uptake by RP-HPLC of cell lysates; details: 100 μM, 120 min, 37 °C minus 4 °C, ACN/H2O extraction, RP-HPLC 460 nm, normalized vs initial concentration incubated
Method: NCI/ADR-RES cells (10^6) were seeded in T-25 Flasks. After 24 h, the medium was removed, and a solution of DOX or CP1T NBD -DOX (100 μM) in culture medium (7 mL) was added. The cells were incubated for 120 min at 37 °C under a CO2 atmosphere (5%). Then, the medium was removed, and the cells were washed with cold PBS (3 × 3 mL). After washing, a mixture of ACN/H2O (1.5 mL, 80:20) was added to the flask and incubated overnight at 4 °C. Solvent samples were transferred to 1.5 mL Eppendorf and centrifuged at 12,000 g for 15 min at 4 °C, and the supernatant was evaporated to dryness. Analogous experiments were carried out by incubating the compounds at 4 °C for 120 min to determine the nonspecific binding to the cell membrane, since the uptake is decreased at this temperature. To evaluate the efficiency of solvent extraction, 10^6 cells were seeded in a T-25 Flask. […] The resulting lysates were analyzed by RP-HPLC by dissolving the Eppendorf samples in an aqueous solution of TFA (1%, 100 μL). All of the intracellular compound quantities were calculated from the detected area and divided by the efficiency of solvent extraction. Cell uptake was calculated by subtracting the intracellular compound quantity from the assay carried out at 37 °C from the quantity obtained at 4 °C and normalized to 100% vs the initial concentration incubated.

[7] = system: MRC-5 (human embryonic lung cell line); assay: MTT cytotoxicity in noncancerous fibroblasts MRC-5; assay type: cell-based; details: MRC-5 fibroblasts, 7 days incubation
[8] = system: NCI-H460 (lung cancer cell line); assay: cells; details: Homo sapiens, NCI-H460, 48 h
Method: as §1

[9] = MCF-7, 96 h incubation, MTT, 50% growth inhibition, calculated only if E max > 50%, read-out: IC50
[10] = NCI/ADR-RES, 72 h incubation, MTT
[11] = NCI-H460, 48 h incubation, MTT, calculated only if E max > 50%
[12] = NCI/ADR-RES, 48 h incubation, MTT, calculated only if E max > 50%, read-out: IC50
[13] = NCI/ADR-RES, 72 h incubation, MTT, calculated only if E max > 50%, read-out: IC50
[14] = NCI/ADR-RES, 48 h incubation, MTT

## C#CC[C@@H]1NC(=O)[C@@H](Cc2c[nH]c3ccccc23)NC(=O)[C@H](CO)NC(=O)[C@@H](CCCCN)NC(=O)[C@H](CO)NC(=O)[C@@H](CSC2CC(=O)N(CCCCCC(=O)NN=C(CO)[C@]3(O)Cc4c(O)c5c(c(O)c4[C@@H](O[C@H]4C[C@H](N)[C@H](O)[C@H](C)O4)C3)C(=O)c3c(OC)cccc3C5=O)C2=O)NC(=O)[C@H](CCC(N)=O)NC(=O)[C@@H](CCCCN)NC1=O (stereo partly drawn) [CP1-DOX] (cyclo(Q[dC](X1)S[dK]S[dW][Pra][dK]))
[1]; [9]
  IC50: 3.5 ± 0.3 µM
[1]; MCF-7, 96 h incubation, MTT
  E max (% inhibition): 81 ± 1 % inhibition
[2]; [10]
  E max (% inhibition): 22 ± 4 % inhibition
[3]
  stability (DOX release) at pH 5.0: drug release was observed after 72 h under these conditions, although part of the cyclic peptide conjugate survived after this time
  stability (DOX release) at physiological pH: much more stable at physiological pH, with a small release of the drug after 72 h
[4]; [11]
  IC50: 2.8 ± 0.1 µM
[4]; NCI-H460, 48 h incubation, MTT
  E max (% inhibition): 75 ± 1 % inhibition
NCI/ADR-RES cells [5]
  cell internalization / localization by confocal microscopy: mainly trapped in small compartments of the cytoplasm

## CCCCCCCCCCn1cc(C[C@@H]2NC(=O)[C@@H](Cc3c[nH]c4ccccc34)NC(=O)[C@H](CO)NC(=O)[C@@H](CCCCN)NC(=O)[C@H](CO)NC(=O)[C@@H](CSC3CC(=O)N(CCCCCC(=O)NN=C(CO)[C@]4(O)Cc5c(O)c6c(c(O)c5[C@@H](O[C@H]5C[C@H](N)[C@H](O)[C@H](C)O5)C4)C(=O)c4c(OC)cccc4C6=O)C3=O)NC(=O)[C@H](CCC(N)=O)NC(=O)[C@@H](CCCCN)NC2=O)nn1 (stereo partly drawn) [CP1T10-DOX]
[1]; [9]
  IC50: 3.4 ± 0.4 µM
[1]; MCF-7, 96 h incubation, MTT
  E max (% inhibition): 89 ± 1 % inhibition
[2]; [12]
  IC50: 38.4 ± 0.7 µM
[2]; [13]
  IC50: 10.8 ± 1.7 µM
[2]; [10]
  E max (% inhibition): 84 ± 3 % inhibition
[3]
  stability (DOX release) at pH 5.0: the molecular ion corresponding to the drug is still very minor after this time
  stability (DOX release) at physiological pH: much more stable at physiological pH, with a small release of the drug after 72 h
[4]; [11]
  IC50: 3.1 ± 0.1 µM
[4]; NCI-H460, 48 h incubation, MTT
  E max (% inhibition): 93 ± 1 % inhibition
NCI/ADR-RES cells [5]
  cell internalization / localization by confocal microscopy: cells with a colored nucleus

## CCCCCCCCCCn1cc(C[C@@H]2NC(=O)[C@@H](Cc3c[nH]c4ccccc34)NC(=O)[C@H](CO)NC(=O)[C@@H](CCCCN)NC(=O)[C@H](CO)NC(=O)[C@@H](CS)NC(=O)[C@H](CCC(N)=O)NC(=O)[C@@H](CCCCN)NC2=O)nn1 [CP1T10]
[1]; [9]
  IC50: 78.8 ± 0.1 µM
[1]; MCF-7, 96 h incubation, MTT
  E max (% inhibition): 59 ± 1 % inhibition
[2]; [12]
  IC50: 68.9 ± 2.1 µM
[2]; [14]
  E max (% inhibition): 70 ± 2 % inhibition
[4]; NCI-H460, 48 h incubation, MTT
  E max (% inhibition): 28 ± 1 % inhibition

## CCCCCCCCCCCCCCn1cc(C[C@@H]2NC(=O)[C@@H](Cc3c[nH]c4ccccc34)NC(=O)[C@H](CO)NC(=O)[C@@H](CCCCN)NC(=O)[C@H](CO)NC(=O)[C@@H](CSC3CC(=O)N(CCCCCC(=O)NN=C(CO)[C@]4(O)Cc5c(O)c6c(c(O)c5[C@@H](O[C@H]5C[C@H](N)[C@H](O)[C@H](C)O5)C4)C(=O)c4c(OC)cccc4C6=O)C3=O)NC(=O)[C@H](CCC(N)=O)NC(=O)[C@@H](CCCCN)NC2=O)nn1 (stereo partly drawn) [CP1T14-DOX]
[2]; [14]
  E max (% inhibition): 44 ± 4 % inhibition
[2]; [13]
  IC50: 5.7 ± 2.7 µM

## COc1cccc2c1C(=O)c1c(O)c3c(c(O)c1C2=O)C[C@@](O)(C(CO)=NNC(=O)CCCCCN1C(=O)CC(SC[C@H]2NC(=O)[C@H](CCC(N)=O)NC(=O)[C@@H](CCCCN)NC(=O)[C@H](Cc4cn(CCCCC(=O)NCCNc5ccc([N+](=O)[O-])c6nonc56)nn4)NC(=O)[C@@H](Cc4c[nH]c5ccccc45)NC(=O)[C@H](CO)NC(=O)[C@@H](CCCCN)NC(=O)[C@H](CO)NC2=O)C1=O)C[C@@H]3O[C@H]1C[C@H](N)[C@H](O)[C@H](C)O1 (stereo partly drawn) [CP1T NBD -DOX]
[2]; [14]
  E max (% inhibition): 30 ± 3 % inhibition
[2]; [13]
  IC50: 3.7 ± 0.2 µM
NCI/ADR-RES cells [6]
  cell uptake: 56.34%

## C#CC[C@@H]1NC(=O)[C@@H](Cc2c[nH]c3ccccc23)NC(=O)[C@H](CO)NC(=O)[C@@H](CCCCN)NC(=O)[C@H](CO)NC(=O)[C@@H](CS)NC(=O)[C@H](CCC(N)=O)NC(=O)[C@@H](CCCCN)NC1=O [CP1] (cyclo([Pra][dK]Q[dC]S[dK]S[dW]))
[1]; 96 h
  IC50: 17.7 ± 0.3 µM
[2]; 48 h
  IC50: 55.8 ± 0.7 µM
[2]; [14]
  E max (% inhibition): 90 ± 1 % inhibition
[4]; 48 h
  IC50: 37.9 ± 0.4 µM

## C#CC[C@@H]1NC(=O)[C@@H](Cc2c[nH]c3ccccc23)NC(=O)[C@H](CO)NC(=O)[C@@H](CSC2CC(=O)N(CCCCCC(=O)NN=C(CO)[C@]3(O)Cc4c(O)c5c(c(O)c4[C@@H](O[C@H]4C[C@H](N)[C@H](O)[C@H](C)O4)C3)C(=O)c3c(OC)cccc3C5=O)C2=O)NC(=O)[C@H](CO)NC(=O)[C@@H](CCCNC(=N)N)NC(=O)[C@H](CCC(N)=O)NC(=O)[C@@H](CCCCN)NC1=O (stereo partly drawn) [CP2-DOX] (cyclo(Q[dR]S[dC](X1)S[dW][Pra][dK]))
[1]; [9]
  IC50: 1.8 ± 0.2 µM
[1]; MCF-7, 96 h incubation, MTT
  E max (% inhibition): 80 ± 1 % inhibition
[2]; [10]
  E max (% inhibition): 13 ± 1 % inhibition
[4]; [11]
  IC50: 2.9 ± 0.3 µM
[4]; NCI-H460, 48 h incubation, MTT
  E max (% inhibition): 92 ± 1 % inhibition
NCI/ADR-RES cells [5]
  cell internalization / localization by confocal microscopy: minimum cell internalization

## CCCCCCCCCCn1cc(C[C@@H]2NC(=O)[C@@H](Cc3c[nH]c4ccccc34)NC(=O)[C@H](CO)NC(=O)[C@@H](CSC3CC(=O)N(CCCCCC(=O)NN=C(CO)[C@]4(O)Cc5c(O)c6c(c(O)c5[C@@H](O[C@H]5C[C@H](N)[C@H](O)[C@H](C)O5)C4)C(=O)c4c(OC)cccc4C6=O)C3=O)NC(=O)[C@H](CO)NC(=O)[C@@H](CCCNC(=N)N)NC(=O)[C@H](CCC(N)=O)NC(=O)[C@@H](CCCCN)NC2=O)nn1 (stereo partly drawn) [CP2T10-DOX]
[1]; [9]
  IC50: 2.6 ± 0.3 µM
[1]; MCF-7, 96 h incubation, MTT
  E max (% inhibition): 88 ± 1 % inhibition
[2]; [12]
  IC50: 33.4 ± 0.3 µM
[2]; [13]
  IC50: 21.8 ± 6.4 µM
[2]; [10]
  E max (% inhibition): 64 ± 7 % inhibition
[4]; [11]
  IC50: 1.7 ± 0.1 µM
[4]; NCI-H460, 48 h incubation, MTT
  E max (% inhibition): 93 ± 1 % inhibition
NCI/ADR-RES cells [5]
  cell internalization / localization by confocal microscopy: cells with a colored nucleus

## CCCCCCCCCCn1cc(C[C@@H]2NC(=O)[C@@H](Cc3c[nH]c4ccccc34)NC(=O)[C@H](CO)NC(=O)[C@@H](CS)NC(=O)[C@H](CO)NC(=O)[C@@H](CCCNC(=N)N)NC(=O)[C@H](CCC(N)=O)NC(=O)[C@@H](CCCCN)NC2=O)nn1 [CP2T10]
[1]; 96 h
  IC50: 50.2 ± 0.6 µM
[1]; MCF-7, 96 h incubation, MTT
  E max (% inhibition): 63 ± 1 % inhibition
[2]; 48 h
  IC50: 68.2 ± 4.6 µM
[2]; [14]
  E max (% inhibition): 75 ± 2 % inhibition
[4]; NCI-H460, 48 h incubation, MTT
  E max (% inhibition): 80 ± 2 % inhibition

## CCCCCCCCCCCCCCn1cc(C[C@@H]2NC(=O)[C@@H](Cc3c[nH]c4ccccc34)NC(=O)[C@H](CO)NC(=O)[C@@H](CSC3CC(=O)N(CCCCCC(=O)NN=C(CO)[C@]4(O)Cc5c(O)c6c(c(O)c5[C@@H](O[C@H]5C[C@H](N)[C@H](O)[C@H](C)O5)C4)C(=O)c4c(OC)cccc4C6=O)C3=O)NC(=O)[C@H](CO)NC(=O)[C@@H](CCCNC(=N)N)NC(=O)[C@H](CCC(N)=O)NC(=O)[C@@H](CCCCN)NC2=O)nn1 (stereo partly drawn) [CP2T14-DOX]
[2]; [14]
  E max (% inhibition): 39 ± 9 % inhibition
[2]; [13]
  IC50: 8.2 ± 0.8 µM
[2]; [10]
  E max (% inhibition): 51 ± 4 % inhibition
[2]; NCI/ADR-RES, 72 h incubation, MTT, listed as CP2T 14 -DOX
  E max (% inhibition): good activity

## C#CC[C@@H]1NC(=O)[C@@H](Cc2c[nH]c3ccccc23)NC(=O)[C@H](CO)NC(=O)[C@@H](CS)NC(=O)[C@H](CO)NC(=O)[C@@H](CCCNC(=N)N)NC(=O)[C@H](CCC(N)=O)NC(=O)[C@@H](CCCCN)NC1=O [CP2] (cyclo([Pra][dK]Q[dR]S[dC]S[dW]))
[1]; MCF-7, 96 h incubation, MTT
  E max (% inhibition): 48 ± 1 % inhibition
[4]; NCI-H460, 48 h incubation, MTT
  E max (% inhibition): 8 ± 1 % inhibition

## N.N.[Cl][Pt][Cl] [Cisplatin, cisplatin, reference compound]
[1]; [9]
  IC50: 7.8 ± 0.6 µM
[1]; MCF-7, 96 h incubation, MTT
  E max (% inhibition): 78 ± 1 % inhibition
[2]; [12]
  IC50: 11.5 ± 0.6 µM
[2]; [14]
  E max (% inhibition): 90 ± 1 % inhibition
[4]; [11]
  IC50: 5.1 ± 0.6 µM
[4]; NCI-H460, 48 h incubation, MTT
  E max (% inhibition): 53 ± 1 % inhibition

## COc1cccc2c1C(=O)c1c(O)c3c(c(O)c1C2=O)C[C@@](O)(C(=O)CO)C[C@@H]3O[C@H]1C[C@H](N)[C@H](O)[C@H](C)O1 [DOX, doxorubicin]
[1]; Homo sapiens, MCF7, MCF-7, 96 h incubation, MTT, 50% growth inhibition, calculated only if E max > 50%, read-out: IC50
  IC50: 0.82 ± 0.1 µM
[1]; MCF-7, 96 h incubation, MTT
  E max (% inhibition): 86 ± 1 % inhibition
[2]; [14]
  E max (% inhibition): 36 ± 4 % inhibition
[2]; NCI/ADR-RES, 48 h incubation, MTT, listed as doxorubicin
  E max (% inhibition): 36 % inhibition
[7]
  cytotoxicity in MRC-5: significant cytotoxicity
[4]; NCI-H460, 48 h incubation, MTT
  E max (% inhibition): 56 ± 1 % inhibition
[8]
  IC50: 9.3 ± 1.7 µM
NCI/ADR-RES cells [6]
  cell uptake: 21.56%
NCI/ADR-RES cells [5]
  cell internalization / localization by confocal microscopy: no significant internalization
